Experimental data published in US11066455B2, “Tmem100 peptides and variants thereof and their use in treating or preventing diseases or conditions” (The Johns Hopkins University, priority 2014, dated 2021).
* marks the point of attachment. Myristoyl = CCCCCCCCCCCCCC(=O)*

Key:
[1] = tested on: CFA-induced hyperalgesia in mice; assay: CFA injection: mechanical (von Frey) and thermal (Hargreaves) hyperalgesia; format: in vivo, mouse; conditions: peptide 5 μl of 2 mM; 3 hours after treatment
Protocol: Mice were placed in a transparent plastic box (4.5×5×10 cm) on a metal mesh and acclimatized for 30 minutes prior to testing. Each mouse was tested more than 5 times at a specific force manually, and the threshold was determined by the lowest force needed to elicit responses more than 50% of the time.
Mice were placed under a transparent plastic box (4.5×5×10 cm) on a glass platform (Plantar Test Apparatus, IITC Life Science). Radiant heat was adjusted to 18% of maximal output and shone on the center of the paws. Each mouse was tested more than 3 times, with each test performed 20 minutes apart.
Mice were injected with 6 μL of 50% emulsified Complete Freund's Adjuvant (Sigma, F5881) in normal saline.
The sequence from the last 28 amino acids of the C-terminus of the Tmem100-3Q mutant protein was synthesized and myristoylated at its N-terminus (myr-[…]-COOH) (SEQ ID NO: 8) by Twentyfirst Century Biochemicals. […] For the calcium imaging assay, the peptides were added to the calcium imaging buffer with a final concentration of 200 nM and incubated for at least […] at room temperature. For the mice behavioral assays, the peptides (5 μL, 2 mM) were injected subcutaneously in the hindpaw at least 30 minutes before testing. For the rat behavior assays, human T100-3Q (h-T100), a palmitoylated cell permeable peptide mutated based on the C terminus of human sequence in Tmem100, was applied. […]

[2] = tested on: capsaicin-induced nocifensive behavior in WT mice; assay: Capsaicin injection: acute nocifensive behavior; format: in vivo, mouse; conditions: capsaicin 0.6 μg, peptide 2 mM
Protocol: Mice were injected with 6 μL of capsaicin (0.1 μg/μL in normal saline/10% ethanol/0.5% Tween 80) in the hindpaws. The mice were placed in a plexiglass cylinder, and the total time spent licking and flinching was recorded for the first 10 minutes after injection.
(§1) The sequence from the last 28 amino acids of the C-terminus of the Tmem100-3Q mutant protein was synthesized and myristoylated at its N-terminus (myr-[…]-COOH) (SEQ ID NO: 8) by Twentyfirst Century Biochemicals. […] For the calcium imaging assay, the peptides were added to the calcium imaging buffer with a final concentration of 200 nM and incubated for at least […] at room temperature. For the mice behavioral assays, the peptides (5 μL, 2 mM) were injected subcutaneously in the hindpaw at least 30 minutes before testing. For the rat behavior assays, human T100-3Q (h-T100), a palmitoylated cell permeable peptide mutated based on the C terminus of human sequence in Tmem100, was applied. The sequence is Palmitoyl-[…]-COOH (SEQ ID NO: 7).

[3] = tested on: ongoing neuropathic pain in SNL rats; assay: Conditioned place preference test for ongoing pain in SNL rats; format: in vivo, rat; conditions: intrathecal 50 μM, 10 μl; scramble peptide-paired chamber as comparison
From the text: Ongoing, or spontaneous, pain, which is most bothersome to patients, is difficult to treat and difficult to study in animals. The conditioned place preference test has been successfully developed to reveal the presence of non-evoked, ongoing pain and pain relief based on the preference of an animal for the context paired with a pain-relief treatment. The conditioned place preference can also capture the aversive aspects of pain. Strikingly, many studies have shown that the rodent conditioned place preference test accurately reflects the effectiveness of human clinical treatments. Therefore, this test is a powerful approach to investigate the potential effectiveness of new treatments and mechanisms for relief of ongoing pain. Two previous studies have examined the role of TRPA1 in ongoing pain by the conditioned place preference test. […] Because the antagonists used in those studies (HC030031 and Chem5861528) target TRPA1 monomers, it is possible that T100-Mut can inhibit ongoing pain by modulating the TRPA1/V1 complex. This possibility was tested in rodents with SNL-induced ongoing pain using the conditioned place preference test. […] Systemic administration of gabapentin, an analgesic that is known to alleviate neuropathic pain, was used as a positive control (FIG. 16B).

TRPA1 = assay: Calcium imaging of HEK293T cells expressing TRPA1 and TRPV1 (MO or CA); format: cell-based; conditions: HEK293T TRPA1+TRPV1 with Tmem100
Protocol: Calcium imaging assays were performed as previously described (Liu et al., 2009). Cells were loaded with 2 μM fura 2-acetomethoxy ester (Molecular Probes) for 30 min in the dark at room temperature or for 45 minutes at 37° C. for DRG and cell lines, respectively. After washing, cells were imaged at 340 and 380 nm excitation to detect intracellular free calcium under a fluorescent microscope (Nikon Eclipse TE2000-S) and Lambda 10B shutter (Sutter Instrument). The cells were bathed in calcium imaging buffer (pH 7.45, 130 mM NaCl, 3 mM KCl, 2.5 mM CaCl2, 10 mM HEPES, 10 mM glucose, 1.2 mM NaHCO3, with sucrose to increase osmolarity to 290 mOsm). The reagents and buffers were applied through a gravity perfusion system at a rate of […], including mustard oil (Sigma 377430), cinnamaldehyde (Sigma C80687), menthol (Sigma M2780), and capsaicin (Sigma M2028). Cells with high baseline 340/380 values (>1.5) were excluded for analysis. For DRG neurons, IB4 staining was performed in the chamber with the dilution of 1:200 (Molecular Probes 121412) for 160 seconds before washing off at the end of each test. Images were processed and analyzed with NIS-Elements BR 2.30 software (Nikon). A responsive cell was defined as one that with greater than a 20% increase in the 340/380 ratio above the baseline. Intracellular calibration for calcium was performed as previously described (Akopian et al., 2007). The data was analyzed with the experimenter blinded to the genotypes or constructs transfected.
DRG from 3 to 4-week old mice were collected in cold DH10 medium (90% DMEM/F-12, 10% FBS, 100 U/ml penicillin, and 100 μg/ml Streptomycin, Gibco) and treated with enzyme solution in HBSS containing collagenase (1.65 mg/mL, Worthington CLS I) and dispase (3.55 mg/mL, GIBCO 17105-041) at 37° C. for 30 minutes. After trituration and centrifugation, cells were resuspended in DH10, plated on glass coverslips coated with poly-D-lysine (0.5 mg/ml, Stoughton, Mass.) and laminin (10 μg/ml, Invitrogen), and cultured overnight in an incubator at 37° C. The neurons were tested within 24 hours. HEK293T, COS-7, and CHO cells were cultured in a medium consisting of 90% DMEM, 10% FBS, 100 U/mL penicillin, and 100 μg/ml Streptomycin. GlutaMAX (Gibco 35050-061) was also added for CHO cells. For calcium imaging, the cells were plated on glass coverslips coated with poly-D-lysine (0.5 mg/ml, Stoughton, Mass.). In the HEK cell studies the denominator is the cells expressing both TRPA1, TRPV1, and the designated constructs (i.e. Tmem100 or Tmem100-3Q mutant). mCherry:TRPV1:Tmem100 was transfected in 1:8:8 ratio into TRPA1 stable cell line (obtained from N. Tigue from GlaxoSmithKline) and used mCherry as the marker for the cells expressing the constructs 18 hours after transfection with Lipofectamine 2000. The transfection efficiency for Tmem100+TRPV1+TRPA1 triple-positive cells is 27±3%. This efficiency was determined by mCherry(+) divided by total number of cells in the bright fields.
as §1

Molecule	CFA-induced mechanical hyperalgesia (mechanical threshold) [1] [g]	CFA-induced thermal hyperalgesia (latency) [1] [s]	acute nocifensive behaviors induced by intradermal capsaicin injection [2] [s]	conditioned place preference: time in drug-paired chamber, SNL rats [3]	percentage of cells responsive to MO (TRPA1; 100 nM MO) [%]	percentage of cells responsive to CA (TRPA1; 5 μM CA) [%]
myr-QRVLEQVLQNWSRRANVKQAQKFQVKCT-COOH (Myristoyl-QRVLEQVLQNWSRRANVKQAQKFQVKCT-OH; SMILES CCCCCCCCCCCCCC(=O)N[C@@H](CCC(N)=O)C(=O)N[C@@H](CCCNC(=N)N)C(=O)N[C@H](C(=O)N[C@@H](CC(C)C)C(=O)N[C@@H](CCC(=O)O)C(=O)N[C@@H](CCC(N)=O)C(=O)N[C@H](C(=O)N[C@@H](CC(C)C)C(=O)N[C@@H](CCC(N)=O)C(=O)N[C@@H](CC(N)=O)C(=O)N[C@@H](Cc1c[nH]c2ccccc12)C(=O)N[C@@H](CO)C(=O)N[C@@H](CCCNC(=N)N)C(=O)N[C@@H](CCCNC(=N)N)C(=O)N[C@@H](C)C(=O)N[C@@H](CC(N)=O)C(=O)N[C@H](C(=O)N[C@@H](CCCCN)C(=O)N[C@@H](CCC(N)=O)C(=O)N[C@@H](C)C(=O)N[C@@H](CCC(N)=O)C(=O)N[C@@H](CCCCN)C(=O)N[C@@H](Cc1ccccc1)C(=O)N[C@@H](CCC(N)=O)C(=O)N[C@H](C(=O)N[C@@H](CCCCN)C(=O)N[C@@H](CS)C(=O)N[C@H](C(=O)O)[C@@H](C)O)C(C)C)C(C)C)C(C)C)C(C)C) [scrambled]	0.05 ± 0.0	3.9 ± 0.6	70 ± 11	no effect		
Tmem100: 134-amino acid two-transmembrane protein, regulator of TRPA1 (SEQ ID NO: 1/2), expressed in cells (protein, listed as Homo sapiens, listed as Mus musculus) chain 1: MTEEPIKEILGAPKAHMAATMEKSPKSEVVITTVPLVSEIQLMAATGGTELSCYRCIIPFAVVVFIAGIVVTAVAYSFNSHGSIISIFGLVVLSSGLFLLASSALCWKVRQRSKKAKRRESQTALVANQRSLFA chain 2: MTEESTKENLGAPKSPTPVTMEKNPKREVVVTTGPLVSEVQLMAATGGAELSCYRCIIPFAVVVFITGIVVTAVAYSFNSHGSIISIFGLVLLSSGLFLLASSALCWKVRQRNKKVKRRESQTALVVNQRCLFA					20	30
